From patent US12180187B2, “1-phenyl-5-azinylpyrazolyl-3-oxyalkyl acids and their use for controlling unwanted plant growth” (BAYER AKTIENGESELLSCHAFT, priority 2019, dated 2024)

Legend:
AMARE [1] = test: Pre-emergence action against AMARE, 1280 g/ha; type: in vivo, Amaranthus retroflexus; settings: scored visually after about 3 weeks vs untreated controls (100% = plants have died)
Procedure, shortened: (§1)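 In greenhouse pots of sandy loam, sown weed seeds were covered with soil and treated pre-emergence with the compound in water (600 L/ha, 0.5% additive). Efficacy was assessed visually as percent of untreated control after about 3 weeks.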

VERPE [2] = test: Post-emergence action against VERPE, 1.28 kg/ha; type: in vivo, Veronica persica; settings: dosage 1280 g/ha, visual rating about 3 weeks after treatment vs untreated controls (100% = plants died)
Procedure, shortened: (§2)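 Post-emergence greenhouse spray, one-leaf stage (2–3 wk after sowing), sandy loam. WP/EC, aqueous + 0.5% additive, 600 L/ha water. Visual % activity vs untreated, ~3 wk after treatment; 100% = plants dead.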

VERPE [3] = test: Pre-emergence action against VERPE, 1280 g/ha; type: in vivo, Veronica persica; settings: scored visually after about 3 weeks vs untreated controls (100% = plants have died)
Procedure, shortened: as §1

POAAN [4] = test: Pre-emergence action against POAAN, 1280 g/ha; type: in vivo, Poa annua; settings: visual scoring after about 3 weeks vs untreated controls, 100% = plants have died, 0% = like control plants
Procedure, shortened: as §1

POAAN [5] = test: Post-emergence action against POAAN, 1.28 kg/ha; type: in vivo, Poa annua; settings: dosage 1280 g/ha, visual rating about 3 weeks after treatment vs untreated controls
Procedure, shortened: as §2

STEME [6] = test: Pre-emergence action against STEME, 1280 g/ha; type: in vivo, Stellaria media; settings: scored visually after about 3 weeks vs untreated controls (100% = plants have died)
Procedure, shortened: as §1

ECHCG [7] = test: Post-emergence action against ECHCG, 1.28 kg/ha; type: in vivo, Echinochloa crus-galli; settings: dosage 1280 g/ha, visual rating about 3 weeks after treatment vs untreated controls
Procedure, shortened: as §2

SETVI [8] = test: Pre-emergence action against SETVI, 1280 g/ha; type: in vivo, Setaria viridis; settings: visual scoring after about 3 weeks vs untreated controls, 100% = plants have died, 0% = like control plants
Procedure, shortened: as §1

ALOMY [9] = test: Pre-emergence action against ALOMY, 1280 g/ha; type: in vivo, Alopecurus myosuroides; settings: visual scoring after about 3 weeks vs untreated controls, 100% = plants have died, 0% = like control plants
Procedure, shortened: as §1

ABUTH [10] = test: Pre-emergence action against ABUTH, 1280 g/ha; type: in vivo, Abutilon theophrasti; settings: scored visually after about 3 weeks vs untreated controls (100% = plants have died)
From the text: 1. Pre-Emergence Herbicidal Effect and Crop Plant Compatibility a) Seeds of mono- and dicotyledonous weed plants are placed in plastic pots in sandy loam soil (doubly sown with one species each of mono- or dicotyledonous weed plants per pot) and covered with soil. The compounds of the invention, formulated in the form of wettable powders (WP) or as emulsion concentrates (EC), are then applied onto the surface of the covering soil as aqueous suspension or emulsion with addition of 0.5% additive at a water application rate equivalent to 600 litres per hectare. After the treatment, the pots are placed in a greenhouse and kept under good growth conditions for the trial plants. After about 3 weeks, the effect of the preparations is scored visually in comparison with untreated controls as percentages. For example, 100% activity=the plants have died, 0% activity=like control plants. 1. Pre-Emergence Effectiveness Tables 1 to 12 below show the effects of selected compounds of the general formula (I) according to Tables 1 and 2 on various harmful plants and at an application rate corresponding to 1280 g/ha, which were obtained by the experimental procedure mentioned above.

MATIN [11] = test: Post-emergence action against MATIN, 1.28 kg/ha; type: in vivo, Tripleurospermum inodorum (Matricaria inodora); settings: dosage 1280 g/ha, visual rating about 3 weeks after treatment vs untreated controls (100% = plants died)
Procedure, shortened: as §2

DIGSA [12] = test: Post-emergence action against DIGSA, 1.28 kg/ha; type: in vivo, Digitaria sanguinalis; settings: dosage 1280 g/ha, visual rating about 3 weeks after treatment vs untreated controls
Procedure, shortened: as §2

DIGSA [13] = test: Pre-emergence action against DIGSA, 1280 g/ha; type: in vivo, Digitaria sanguinalis; settings: visual scoring after about 3 weeks vs untreated controls, 100% = plants have died, 0% = like control plants
Procedure, shortened: as §1

ABUTH [14] = test: Post-emergence action against ABUTH, 1.28 kg/ha; type: in vivo, Abutilon theophrasti; settings: dosage 1280 g/ha, visual rating about 3 weeks after treatment vs untreated controls (100% = plants died)
Procedure, shortened: as §2

SETVI [15] = test: Post-emergence action against SETVI, 1.28 kg/ha; type: in vivo, Setaria viridis; settings: dosage 1280 g/ha, visual rating about 3 weeks after treatment vs untreated controls
Procedure, shortened: as §2

MATIN [16] = test: Pre-emergence action against MATIN, 1280 g/ha; type: in vivo, Tripleurospermum inodorum (Matricaria inodora); settings: scored visually after about 3 weeks vs untreated controls (100% = plants have died)
Procedure, shortened: as §1

ALOMY [17] = test: Post-emergence action against ALOMY, 1.28 kg/ha; type: in vivo, Alopecurus myosuroides; settings: dosage 1280 g/ha, visual rating about 3 weeks after treatment vs untreated controls
Procedure, shortened: as §2

LOLRI = test: Pre-emergence action against LOLRI, 1280 g/ha; type: in vivo, Lolium rigidum; settings: visual scoring after about 3 weeks vs untreated controls, 100% = plants have died, 0% = like control plants
Procedure, shortened: as §1

KCHSC [18] = test: Post-emergence action against KCHSC, 1.28 kg/ha; type: in vivo, Bassia scoparia; settings: dosage 1280 g/ha, visual rating about 3 weeks after treatment vs untreated controls (100% = plants died)
Procedure, shortened: as §2

AMARE [19] = test: Post-emergence action against AMARE, 1.28 kg/ha; type: in vivo, Amaranthus retroflexus; settings: dosage 1280 g/ha, visual rating about 3 weeks after treatment vs untreated controls (100% = plants died)
Procedure, shortened: as §2

KCHSC [20] = test: Pre-emergence action against KCHSC, 1280 g/ha; type: in vivo, Bassia scoparia; settings: scored visually after about 3 weeks vs untreated controls (100% = plants have died)
Procedure, shortened: as §1

STEME [21] = test: Post-emergence action against STEME, 1.28 kg/ha; type: in vivo, Stellaria media; settings: dosage 1280 g/ha, visual rating about 3 weeks after treatment vs untreated controls (100% = plants died)
Procedure, shortened: as §2

ECHCG [22] = test: Pre-emergence action against ECHCG, 1280 g/ha; type: in vivo, Echinochloa crus-galli; settings: visual scoring after about 3 weeks vs untreated controls, 100% = plants have died, 0% = like control plants
Procedure, shortened: as §1

## O=C(O)C1CCCN1C(=O)COc1nn(-c2ccccc2F)c(-c2cncc(F)c2)c1Br (centres unmarked) [Example X-039]
AMARE [1]
  Pre-emergence action against AMARE: 100%
VERPE [2]
  Post-emergence action against VERPE: 100%
VERPE [3]
  Pre-emergence action against VERPE: 100%
POAAN [4]
  Pre-emergence action against POAAN: 100%
POAAN [5]
  Post-emergence action against POAAN: 100%
STEME [6]
  Pre-emergence action against STEME: 90%
ECHCG [7]
  Post-emergence action against ECHCG: 90%
SETVI [8]
  Pre-emergence action against SETVI: 90%
ALOMY [9]
  Pre-emergence action against ALOMY: 90%
ABUTH [10]
  Pre-emergence action against ABUTH: 90%
MATIN [11]
  Post-emergence action against MATIN: 100%
DIGSA [12]
  Post-emergence action against DIGSA: 90%
DIGSA [13]
  Pre-emergence action against DIGSA: 90%
ABUTH [14]
  Post-emergence action against ABUTH: 100%
SETVI [15]
  Post-emergence action against SETVI: 100%
MATIN [16]
  Pre-emergence action against MATIN: 100%
ALOMY [17]
  Post-emergence action against ALOMY: 90%
LOLRI
  Pre-emergence action against LOLRI: 90%
KCHSC [18]
  Post-emergence action against KCHSC: 90%
AMARE [19]
  Post-emergence action against AMARE: 90%
KCHSC [20]
  Pre-emergence action against KCHSC: 100%
STEME [21]
  Post-emergence action against STEME: 100%
ECHCG [22]
  Pre-emergence action against ECHCG: 90%

## C=CCNC(=O)COc1nn(-c2ccccc2F)c(-c2cncnc2)c1Br [IX-001]
AMARE [1]
  Pre-emergence action against AMARE: 100%
VERPE [2]
  Post-emergence action against VERPE: 100%
VERPE [3]
  Pre-emergence action against VERPE: 100%
POAAN [4]
  Pre-emergence action against POAAN: 100%
STEME [6]
  Pre-emergence action against STEME: 100%
ECHCG [7]
  Post-emergence action against ECHCG: 90%
SETVI [8]
  Pre-emergence action against SETVI: 100%
ABUTH [10]
  Pre-emergence action against ABUTH: 100%
MATIN [11]
  Post-emergence action against MATIN: 90%
DIGSA [12]
  Post-emergence action against DIGSA: 100%
DIGSA [13]
  Pre-emergence action against DIGSA: 100%
ABUTH [14]
  Post-emergence action against ABUTH: 90%
MATIN [16]
  Pre-emergence action against MATIN: 100%
LOLRI
  Pre-emergence action against LOLRI: 100%
KCHSC [18]
  Post-emergence action against KCHSC: 90%
KCHSC [20]
  Pre-emergence action against KCHSC: 100%
STEME [21]
  Post-emergence action against STEME: 100%
ECHCG [22]
  Pre-emergence action against ECHCG: 90%
